The values that follow come from patent US7030145B2, “Pyridinyl derivatives for the treatment of depression” (Bristol-Myers Squibb Company, priority 2003, dated 2006).

Data set [1] deals with T1, cloned human CRF-R1 receptors (Homo sapiens, UniProt P34998).
T1 construct: the coding region was amplifies by PCR from start to stop codons; expressed in transfected cells; membranes
T1 sequence (P34998 24-415): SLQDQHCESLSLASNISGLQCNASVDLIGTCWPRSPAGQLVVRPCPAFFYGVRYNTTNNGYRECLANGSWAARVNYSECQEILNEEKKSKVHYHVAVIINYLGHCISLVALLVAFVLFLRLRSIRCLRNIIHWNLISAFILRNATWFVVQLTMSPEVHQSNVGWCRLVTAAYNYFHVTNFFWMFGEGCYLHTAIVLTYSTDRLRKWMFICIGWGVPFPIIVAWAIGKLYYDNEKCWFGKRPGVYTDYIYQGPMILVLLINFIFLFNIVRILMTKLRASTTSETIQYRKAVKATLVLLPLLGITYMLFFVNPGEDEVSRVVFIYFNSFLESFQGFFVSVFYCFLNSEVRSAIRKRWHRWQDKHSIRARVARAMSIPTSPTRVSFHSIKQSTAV
The experiment in a line: CRF-R1 receptor binding assay (inhibition of 125I-ovine-CRF binding to cell membranes). The conditions noted are these: membranes of 293EBNA cells transfected with hCRFR1, class d = reported as percent inhibition at 10 μM, figures not given, read-out: activity (Ki class in the CRF assays). In short, it runs like this:
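Membranes from hygromycin-selected 293EBNA cells expressing human CRF-R1 were incubated for 2 h at room temperature with 150 pM 125I-ovine-CRF and test drug at 10^−10–10^−5 M final, in pH 7.0 HEPES buffer with MgCl2 and EGTA. Bound ligand was collected by filtration and gamma-counted, and Ki values were derived by iterative curve fitting.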

Regarding `CC(=O)OCc1ccc(S(=O)(=O)c2ccc(C)nc2Nc2c(C)cc(C)cc2C)cc1` [Example 55, Acetic acid 4-[6-methyl-2-(2,4,6-trimethylphenylamino)-pyridine-3-sulfonyl]-benzyl ester], the melting point – broadly, the temperature of the solid-liquid transition – lay within 132 to 134 °C. For the same molecule, the inhibition constant Ki (usually the dissociation constant of the complex between target and ligand, obtained from inhibition or displacement) in data set [1] lay in the range of 100 to 500 nM.

As to `COc1cccc(S(=O)(=O)c2ccc(C)nc2Nc2c(C)cc(C)cc2C)c1` [Example 56, [3-(3-Methoxybenzenesulfonyl)-6-methylpyridin-2-yl]-(2,4,6-trimethylphenyl)-amine], the melting point fell in the range of 87 to 88 °C. Besides, the Ki in data set [1] is 100 to 500 nM.

Take `Cc1cc(C)c(Nc2nc(C)ccc2S(=O)(=O)c2cccc(O)c2)c(C)c1` [Example 57, 3-[6-Methyl-2-(2,4,6-trimethylphenylamino)-pyridine-3-sulfonyl]-phenol]: the melting point lay within 196 to 197 °C. The Ki in data set [1] was 100 to 500 nM.

As for `CCOc1cccc(S(=O)(=O)c2ccc(C)nc2Nc2c(C)cc(C)cc2C)c1` [Example 58, [3-(3-Ethoxybenzenesulfonyl)-6-methylpyridin-2-yl]-(2,4,6-trimethylphenyl)-amine], the melting point lay in the range of 96 to 97 °C. Further, the Ki in data set [1] was 100 to 500 nM.

As for `COc1cc(COc2cccc(S(=O)(=O)c3ccc(C)nc3Nc3c(C)cc(C)cc3C)c2)cc(OC)c1` [Example 63, {3-[3-(3,5-Dimethoxybenzyloxy)-benzenesulfonyl]-6-methylpyridin-2-yl}-(2,4,6-trimethylphenyl)-amine], the melting point lay in the range of 120 to 121 °C. In addition, the inhibition constant Ki in data set [1] lay within 100 to 500 nM.

In turn, `CCc1ccc(S(=O)(=O)c2ccc(C)nc2Nc2ccc(OC)cc2Cl)cc1` [Example 69, (2-Chloro-4-methoxyphenyl)-[3-(4-ethylbenzenesulfonyl)-6-methylpyridin-2-yl]-amine] came in with a melting point of 110 to 112 °C. The Ki in data set [1] fell in the range of 100 to 500 nM.
